Assay results from ChEMBL document CHEMBL1136367, “Design and synthesis of novel benzofurans as a new class of antifungal agents targeting fungal N-myristoyltransferase. Part 3” (Bioorg Med Chem Lett, 2003).

Legend:
[1] = biological target: Peptide N-myristoyltransferase (Candida albicans); test: Inhibitory activity against Candida albicans Nmt (CaNmt) using substrate peptide GLTISKLFR-R-NH2 (0.5 uM) and myristoyl-CoA (0.5 uM)
[2] = Pharmacokinetic property when administered intravenously in rat at 2 mg/kg; format: ADME, organism-based; set-up: dose 2 mg/kg, route intravenous; conditions: in vivo, iv
[3] = biological target: Peptide N-myristoyltransferase (Candida albicans); test: In vitro inhibitory activity against Candida albicans Nmt (CaNmt) using substrate peptide GLTISKLFR-R-NH2 (0.5 uM) and myristoyl-CoA (0.5 uM)
Candida albicans [4] = test: In vitro antifungal activity against Candida albicans (CY1002) in YNBPB medium; format: functional, organism-based
[5] = biological target: Peptide N-myristoyltransferase (Aspergillus fumigatus); test: In vitro inhibitory activity against Aspergillus fumigatus Nmt (AfNmt) using substrate peptide GLTISKLFR-R-NH2 (0.5 uM) and myristoyl-CoA (0.5 uM)
[6] = Half life period was evaluated in rat plasma; format: ADME, organism-based
[7] = biological target: T1, Peptide N-myristoyltransferase (Homo sapiens, UniProt P30419+O60551); test: In vitro inhibitory activity against human Nmt (HsNmt) using 0.5 uM peptide GNAASAR-R-NH2 and 0.5 uM myristoyl-CoA; format: protein assay
T1 sequence (P30419 whole entry): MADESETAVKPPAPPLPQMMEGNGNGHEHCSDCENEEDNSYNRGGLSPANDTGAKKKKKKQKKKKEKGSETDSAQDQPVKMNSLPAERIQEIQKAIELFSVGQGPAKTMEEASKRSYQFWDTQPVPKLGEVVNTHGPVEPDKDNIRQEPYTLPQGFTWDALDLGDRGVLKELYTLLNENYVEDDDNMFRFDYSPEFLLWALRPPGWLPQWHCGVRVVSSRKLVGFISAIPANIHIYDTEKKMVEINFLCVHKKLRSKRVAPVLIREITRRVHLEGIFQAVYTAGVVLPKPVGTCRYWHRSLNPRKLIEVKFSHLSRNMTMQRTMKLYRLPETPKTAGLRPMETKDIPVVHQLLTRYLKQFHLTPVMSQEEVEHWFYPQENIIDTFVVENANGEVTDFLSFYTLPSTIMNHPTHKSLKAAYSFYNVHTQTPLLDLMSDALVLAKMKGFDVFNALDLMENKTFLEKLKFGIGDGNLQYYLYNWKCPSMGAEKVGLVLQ
T1 sequence (O60551 whole entry): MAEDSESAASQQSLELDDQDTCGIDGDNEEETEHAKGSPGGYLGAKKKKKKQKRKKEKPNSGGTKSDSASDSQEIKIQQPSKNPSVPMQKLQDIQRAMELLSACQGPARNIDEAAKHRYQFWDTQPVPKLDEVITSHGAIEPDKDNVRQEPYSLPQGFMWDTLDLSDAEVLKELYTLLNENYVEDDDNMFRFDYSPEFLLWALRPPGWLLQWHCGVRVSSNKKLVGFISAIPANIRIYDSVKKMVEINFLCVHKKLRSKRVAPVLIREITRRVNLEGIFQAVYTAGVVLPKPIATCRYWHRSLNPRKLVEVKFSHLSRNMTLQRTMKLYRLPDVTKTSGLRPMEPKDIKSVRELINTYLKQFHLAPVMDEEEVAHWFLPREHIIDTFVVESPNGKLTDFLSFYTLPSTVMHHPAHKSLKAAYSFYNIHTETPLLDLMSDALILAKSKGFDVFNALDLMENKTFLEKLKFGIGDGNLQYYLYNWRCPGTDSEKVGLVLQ

Candida albicans [8] = test: In vitro antifungal activity against Candida albicans (CY1002) in 80% calf serum; format: functional, organism-based
Rattus norvegicus [9] = species: Rattus norvegicus; test: Antifungal activity determined in rat infected with Candida albicans CY1002; format: functional
[10] = biological target: Peptide N-myristoyltransferase (Candida albicans); test: In vitro inhibitory activity against candida albicans Nmt (CaNmt) using substrate peptide GLTISKLFR-R-NH2 (0.5 uM) and myristoyl-CoA (0.5 uM)
[11] = biological target: Peptide N-myristoyltransferase (Aspergillus fumigatus); test: In vitro inhibitory activity against aspergillus fumigatus Nmt (AfNmt) using substrate peptide GLTISKLFR-R-NH2 (0.5 uM) and myristoyl-CoA (0.5 uM)
Rattus norvegicus [12] = species: Rattus norvegicus; test: Antifungal activity determined in rat infected with Candida albicans CY1002.; format: functional
Candida albicans [13] = test: In vitro antifungal activity against Candida albicans (CY1002) in YNBPB medium in rat; format: functional, organism-based
Mus musculus = test: In vivo efficacy expressed as effective dose against murine systematic candidiasis model; format: functional
[14] = biological target: Peptide N-myristoyltransferase (Candida albicans); test: In vitro inhibitory activity against Candida albicans Nmt (CaNmt) using substrate peptide GLTISKLFR-R-NH2 (0.5 uM) and myristoyl-CoA (0.5 uM); remark: listed apart in the source

Compound: Cc1c(C(=O)c2cccnc2)oc2cccc(OCCCNCc3cccnc3)c12
- IC50 [1]: 62 nM

Compound: Cc1csc(C(=O)c2oc3cccc(OCCCNCc4cccnc4)c3c2C)n1
- AUC [2]: 470 ng·h/mL
- IC50 [3]: 2 nM
- IC50 (Candida albicans [4]): 140 nM
- IC50 [5]: 18000 nM
- half-life [6]: 20.4 min
- IC50 [7]: 130000 nM
- IC50 (Candida albicans [8]): 740 nM

Compound: C=CCn1c(C(=O)c2oc3cccc(OCCCNCc4cccnc4)c3c2C)nc2ccccc21
- AUC [2]: 570 ng·h/mL
- IC50 [3]: 0.58 nM
- IC50 (Candida albicans [4]): 48 nM
- IC50 [5]: 5100 nM
- half-life [6]: 48 min
- IC50 [7]: 85000 nM
- ED50 (Rattus norvegicus [9]): 8.7 mg/kg
- IC50 (Candida albicans [8]): 420 nM

Compound: Cc1c(C(=O)c2nccs2)oc2cccc(OCCCNCc3cccnc3)c12
- IC50 [3]: 91 nM
- IC50 (Candida albicans [4]): 540 nM
- IC50 [5]: 63000 nM
- IC50 [7]: 25000 nM
- IC50 (Candida albicans [8]): 8300 nM

Compound: Cc1nc(C(=O)c2oc3cccc(OCCCNCc4cccnc4)c3c2C)sc1C
- AUC [2]: 320 ng·h/mL
- IC50 [3]: 0.71 nM
- IC50 (Candida albicans [4]): 39 nM
- IC50 [5]: 4300 nM
- half-life [6]: 39 min
- IC50 [7]: 83000 nM
- IC50 (Candida albicans [8]): 190 nM

Compound: Cc1c(C(O)c2ccccn2)oc2cccc(OCCCNCc3cccnc3)c12 (stereo not given)
- IC50 [1]: 47 nM

Compound: Cc1c(Cc2ccccn2)oc2cccc(OCCCNCc3cccnc3)c12
- IC50 [1]: 1900 nM

Compound: Cc1ccc(C(=O)c2oc3cccc(OCCCNCc4cccnc4)c3c2C)nc1
- AUC [2]: 440 ng·h/mL
- IC50 [10]: 0.39 nM
- half-life [6]: 34.8 min
- IC50 [7]: > 480000 nM
- IC50 [11]: 4100 nM
- ED50 (Rattus norvegicus [12]): 15 mg/kg
- IC50 (Candida albicans [13]): 36 nM
- IC50 (Candida albicans [8]): 82 nM

Compound: Cc1c(COc2ccc(F)c(F)c2F)oc2cccc(OCCCNCc3cccnc3)c12
- ED50 (Mus musculus): 7.1 mg/kg
- half-life [6]: 120 min

Compound: Cc1c(C(=O)c2nccn2C)oc2cccc(OCCCNCc3cccnc3)c12
- AUC [2]: 530 ng·h/mL
- IC50 (Candida albicans [4]): 120 nM
- half-life [6]: 27 min
- IC50 (Candida albicans [8]): 3000 nM

Compound: Cc1c(C(=O)c2ccccc2)oc2cccc(OCCCNCc3cccnc3)c12
- IC50 [1]: 1200 nM

Compound: Cc1c(C(=O)c2ccccn2)oc2cccc(OCCCNCc3cccnc3)c12
- AUC [2]: 410 ng·h/mL
- IC50 (Candida albicans [4]): 65 nM
- IC50 [5]: 42000 nM
- half-life [6]: 32.4 min
- IC50 [7]: 340000 nM
- IC50 [14]: 3.5 nM
- IC50 (Candida albicans [8]): 470 nM

Compound: Cc1c(C(=O)c2ncccc2C(F)(F)F)oc2cccc(OCCCNCc3cccnc3)c12
- AUC [2]: 590 ng·h/mL
- IC50 [3]: 43 nM
- IC50 (Candida albicans [4]): 340 nM
- IC50 [5]: 11000 nM
- half-life [6]: 33.6 min
- IC50 [7]: > 430000 nM
- IC50 (Candida albicans [8]): 5100 nM

Compound: OC(Cn1cncn1)(Cn1cncn1)c1ccc(F)cc1F [FLUCONAZOLE]
- AUC [2]: 19600 ng·h/mL
- half-life [6]: 240 min

Compound: Cc1c(C(=O)c2ccco2)oc2cccc(OCCCNCc3cccnc3)c12
- IC50 [3]: 1400 nM
- IC50 (Candida albicans [4]): 4600 nM
- IC50 [5]: 150000 nM
- IC50 [7]: 280000 nM
- IC50 (Candida albicans [8]): 25000 nM

Compound: Cc1c(C(=O)c2nc3ccccc3n2C)oc2cccc(OCCCNCc3cccnc3)c12
- AUC [2]: 450 ng·h/mL
- IC50 [3]: 0.4 nM
- IC50 (Candida albicans [4]): 35 nM
- IC50 [5]: 13000 nM
- half-life [6]: 35.4 min
- IC50 [7]: 94000 nM
- IC50 (Candida albicans [8]): 1200 nM

Compound: Cc1c(C(=O)c2nc3ccccc3n2C(C)C)oc2cccc(OCCCNCc3cccnc3)c12
- AUC [2]: 810 ng·h/mL
- IC50 [3]: 1.3 nM
- IC50 (Candida albicans [4]): 19 nM
- IC50 [5]: 480 nM
- half-life [6]: 51.6 min
- IC50 [7]: 99000 nM
- IC50 (Candida albicans [8]): 2700 nM
